The subject of experiment [1] is 601 DNA. Briefly: EMSA with 601 DNA. The class given is binding. As to conditions: for binding to 601 DNA: 147 bp 601 DNA 5 pmol, pH 7.5, 150 mM NaCl, 0.5 h on ice. As for the experimental part:
EMSA experiments were performed essentially as described. In brief, increasing amounts of WT or mutant CW or ATPaseCW cassette of MORC4 were incubated with 147 bp 601 DNA (5 pmol) or 50 ng of O’RangeRuler 5 bp ladder (Thermo Scientific) in a DNA-binding buffer containing 20 mM Tris-HCl (pH 7.5), 150 mM NaCl, 2.5 mM MgCl2, and 2 mM DTT for 0.5 h on ice. The reaction mixtures were loaded on 5% native polyacrylamide gels, and electrophoresis was performed in 0.2× Tris-borate-EDTA (TBE) buffer at 100 V for 1.2 h on ice. Gels were stained with SYBR Gold (Invitrogen).

In experiment [2] the target is T1, MORC4 CW domain (Homo sapiens, UniProt Q8TE76).
T1 construct: The CW domain (aa 417–475) of MORC4 was cloned into a pGEX 6p-1 vector; GST (N, cleaved yes); made in house; host or cells: E. coli Rosetta2 (DE3) pLysS or BL21 (DE3) RIL
T1 sequence (Q8TE76 417-475): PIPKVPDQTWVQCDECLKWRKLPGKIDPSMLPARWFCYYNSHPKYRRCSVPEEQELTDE
Briefly: Tryptophan fluorescence binding of histone H3 peptides to MORC4 CW. The following applies: for Kd: tryptophan fluorescence, 25 °C, pH 6.8, 100 mM NaCl, excitation 295 nm, isolated CW. As for the experimental part: Spectra were recorded at 25 °C on a Fluoromax-3 spectrofluorometer (HORIBA). The samples containing 0.5–1 µM wild-type or mutated ATPaseCW or CW in 20 mM Tris pH 6.8, 100 mM NaCl, 2 mM DTT buffer and progressively increasing concentrations of the histone peptides were excited at 295 nm. Emission spectra were recorded between 320 and 360 nm with a 0.5 nm step size and a 0.5 s integration time and averaged over three scans. The Kd values were determined using a nonlinear least-squares analysis and the equation:1 ΔI=ΔImaxL+P+Kd−L+P+Kd^2−4PL/2P where [L] is the concentration of the histone peptide, [P] is the concentration of the protein, ΔI is the observed change of signal intensity, and ΔImax is the difference in signal intensity of the free and bound states of the protein. The Kd values were averaged over three separate experiments with the error calculated as the standard deviation between the runs.

Experiment [3] concerns NCP252. Briefly: FRET, Gal4 titration into Cy3-Cy5 labeled NCP252. The class given is binding. As to conditions: for S1/2: mean of n = 3. As for the experimental part:
Histone octamers unlabeled or labeled with Cy5 at H2AK119 were prepared as previously described. NCPs were reconstituted by combining octamer with 1.25× excess DNA and performing slow salt dialysis. Free DNA was then separated from fully reconstituted NCPs by sucrose gradient purification. NCPs for fluorescence polarization assays were reconstituted from unlabeled octamer and 207 bp DNA containing the 601 Widom sequence flanked with a 30 bp linker on either side and internally labeled with Fluorescein 27 bp in from the 5′ end. Cy3-Cy5 labeled NCPs for FRET assays were reconstituted with Cy5 labeled octamer plus either 147 bp 601 Widom DNA containing a LexA transcription factor binding site at bases 8–27[34], or 252 bp DNA containing the 601 Widom sequence with a 75 bp linker at the 3′ end, a 30 bp linker at the 5’ end, and a Gal4 transcription factor binding site at bases 8–26 in the 601 Widom sequence. The 147 bp LexA-binding DNA was labeled with Cy3 on the 5′ end, and the 252 bp Gal4-binding DNA was internally labeled with Cy3 34 bp in from the 5′ end.
LexA was expressed in E. coli, separated from genomic DNA and the proteome by polyethyleneimine precipitation, and salted out with ammonium sulfate. LexA was resuspended in buffer A (20 mM potassium phosphate pH 7, 0.1 mM EDTA, 10% glycerol, 1 mM DTT) + 200 mM NaCl and purified by a linear gradient to A + 800 mM NaCl over either a cellulose phosphate or HiTrap Heparin HP column. Final LexA purification was performed on a hydroxyapatite column and dialyzed into 10 mM PIPES pH 7.0, 0.1 mM EDTA, 10% glycerol, and 200 mM NaCl for storage at −80 °C. The His-tagged DNA-binding domain (aa 1–147) of Gal4 was expressed in E. coli and purified from lysate by a linear gradient of buffer B (25 mM Tris pH 7.5, 200 mM NaCl, 0.2% Tween 20, 20 µM zinc acetate, 1 mM dithiothreitol, and 1 mM PMSF) + 10 mM imidazole to B + 200 mM imidazole over a Nickel-NTA column. Gal4 (1–147) was then further purified by a linear gradient of buffer C (25 mM Tris pH 7.5, 20 µM zinc acetate, 1 mM dithiothreitol, and 1 mM PMSF) + 200 mM NaCl to C + 800 mM NaCl over a Tosoh cation exchange column. Purified Gal4 (1–147) was then dialyzed into 10 mM HEPES pH 7.5, 200 mM NaCl, 10% glycerol, 20 µM zinc acetate, 1 mM DTT, and 1 mM PMSF for storage at −80 °C.
Cy3-Cy5 NCP FRET efficiency measurements were carried out on a Horiba Scientific Fluoromax 4. Samples were excited at 510 and 610 nm and the photoluminescence spectra were collected from 530 to 750 nm and 630 to 750 nm for donor and acceptor excitations, respectively. Each wavelength was integrated for one second, and the excitation and emission slit width were set to 5 nm with 2 nm emission wavelength steps. FRET measurements were computed through the (ratio)A method. LexA titrations were carried out in 20 mM Tris pH 7.5, 75 mM NaCl, 10% glycerol, 0.00625% Tween 20 buffer with 5 nM 147 bp Cy3-Cy5 NCPs mixed in 20 µL reaction volumes and allowed to incubate for 5 mins at 4 °C before FRET of the sample was measured. To measure changes in accessibility of the NCP147 due to MORC4 ATPaseCW binding, LexA titrations were repeated in the presence of NCP binding saturating concentrations of MORC4 ATPaseCW. Gal4 (1–147) titrations were carried out in 10 mM Tris pH 8, 130 mM NaCl, 10% glycerol, 0.0075% Tween 20 buffer with 1 nM 252 bp Cy3-Cy5 nucleosomes mixed in 60 µL reaction volumes and allowed to incubate for 10 mins at room temperature before FRET of the sample was measured. […]

Where “and” joins values, the source holds several entries; their conditions need not be identical. Equal values may be shown once.

For `Nc1ncnc2c1ncn2[C@@H]1O[C@H](COP(=O)(O)OP(=O)(O)NP(=O)(O)O)[C@@H](O)[C@H]1O` [AMPPNP, adenylyl-imidodiphosphate, reference compound], in experiment [1] (added to ATPaseCW), the “effect on binding of ATPaseCW to 601 DNA” value is “increases binding to 601 DNA”.

Broadly, the Kd is the concentration at which binding is half-saturated. Read a low Kd as higher affinity. In experiment [2] (mean of n = 3), `C[C@H](N)C(=O)N[C@@H](CCCNC(=N)N)C(=O)N[C@H](C(=O)N[C@@H](CCCC[N+](C)(C)C)C(=O)N[C@@H](CCC(N)=O)C(=O)N[C@H](C(=O)N[C@@H](C)C(=O)N[C@@H](CCCNC(=N)N)C(=O)N[C@@H](CCCCN)C(=O)N[C@@H](CO)C(=O)N[C@H](C(=O)NCC(=O)O)[C@@H](C)O)[C@@H](C)O)[C@@H](C)O` [H3K4me3] showed a dissociation constant (Kd) of 112 nM.

In experiment [2] (mean ± S.D. of n = 3), `C[C@H](N)C(=O)N[C@@H](CCCNC(=N)N)C(=O)N[C@H](C(=O)N[C@@H](CCCCN)C(=O)N[C@@H](CCC(N)=O)C(=O)N[C@H](C(=O)N[C@@H](C)C(=O)N[C@@H](CCCNC(=N)N)C(=O)N[C@@H](CCCCN)C(=O)N[C@@H](CO)C(=O)N[C@H](C(=O)NCC(=O)O)[C@@H](C)O)[C@@H](C)O)[C@@H](C)O` [H3] gave a Kd of 2660 nM.

In the case of “CW: CW domain (aa 417–475) of MORC4 (PIPKVPDQTWVQCDECLKWRKLPGKIDPSMLPARWFCYYNSHPKYRRCSVPEEQELTDE; left off: GST, end not stated, cleaved)”, in experiment [1], the “binding to 601 DNA” value is “indicating the direct interaction”. Further, in experiment [2] (MORC4 CW vs other H3K4me3 readers (compared with ref [21],[22])), the “higher binding affinity to H3K4me3 than other readers” value is reported as 7–10 fold.

On to “CWKRR: triple mutant of the MORC4 CW domain, K460A/R462A/R463A (PIPKVPDQTWVQCDECLKWRKLPGKIDPSMLPARWFCYYNSHPAYAACSVPEEQELTDE; left off: GST, end not stated, cleaved)”, for which the “binding to 601 DNA” value in experiment [1] is “did not observe the 601 DNA band shift even at the DNA to CWKRR molar ratio of 1 to 200”.

For the compound “Gal4: DNA-binding domain (aa 1–147) of transcription factor Gal4”, the S1/2 in experiment [3] (FRET efficiency reduced by 50%, without MORC4, 1 nM NCP252, pH 8, 130 mM NaCl, room temperature, 10 min) is 20 ± 4 nM and 20 nM; in experiment [3] (in presence of MORC4 ATPaseCW with 0.3 mM ATP) it was 100 ± 7 nM and 100 nM; in experiment [3] (in presence of MORC4 ATPaseCW, without ATP), 40 ± 5 nM and 40 nM. Besides, the “decrease in ability to bind NCP252” value in experiment [3] (MORC4 ATPaseCW with ATP vs no MORC4) is given as ~ 5 fold; in experiment [3] (MORC4 ATPaseCW without ATP vs no MORC4), 2 fold.

The values above are taken from publication PMC7596504, “Molecular mechanism of the MORC4 ATPase activation” (Nature Communications, 2020).
